# Test results from patent publication US10689377B2 (Mirati Therapeutics, Inc., priority 2017, dated 2020).
# Target: KRas G12C (Homo sapiens, UniProt P01116, G12C)
# Assay: Cellular inhibition of KRas G12C measured by Phospho-ERK in NCI-H358 cells
# Type: cell-based
# Details: pERK(Thr202/Tyr204) normalized with GAPDH, NCI-H358 cells, 3 hours; read-out: IC50
# How it was run: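 NCI-H358 cells treated 3 h with compound (0.5% DMSO final), then fixed and methanol-permeabilised. In-cell immunofluorescence measured pERK(Thr202/Tyr204) normalised to GAPDH as percent of DMSO control. IC50 from a 4-parameter dose-response fit.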
# Sequence of KRas G12C (P01116 1-188 isoform P01116-2 G12C): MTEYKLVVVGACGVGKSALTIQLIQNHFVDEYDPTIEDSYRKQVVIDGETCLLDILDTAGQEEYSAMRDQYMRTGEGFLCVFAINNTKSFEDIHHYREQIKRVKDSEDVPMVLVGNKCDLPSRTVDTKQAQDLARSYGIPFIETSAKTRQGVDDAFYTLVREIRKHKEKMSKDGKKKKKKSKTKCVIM
row,Compound,IC50
1,"Cc1cccc2cccc(N3CCc4c(nc(OC[C@@H]5CCCN5C)nc4N4CCN(C(=O)/C=C/c5ccccn5)[C@@H](CC#N)C4)C3)c12 [Example 493, 2-((S)-4-(7-(8-methylnaphthalen-1-yl)-2-(((S)-1-methylpyrrolidin-2-yl)methoxy)-5,6,7,8-tetrahydropyrido[3,4-d]pyrimidin-4-yl)-1-((E)-3-(pyridin-2-yl)acryloyl)piperazin-2-yl)acetonitrile]",0.1 to 1000 nM
2,"Cc1cccc2cccc(N3CCc4c(nc(OC[C@@H]5CCCN5C)nc4N4CCN(C(=O)/C=C/c5cnn(C)c5)[C@@H](CC#N)C4)C3)c12 [Example 494, 2-((S)-1-((E)-3-(1-methyl-1H-pyrazol-4-yl)acryloyl)-4-(7-(8-methylnaphthalen-1-yl)-2-(((S)-1-methylpyrrolidin-2-yl)methoxy)-5,6,7,8-tetrahydropyrido[3,4-d]pyrimidin-4-yl)piperazin-2-yl)acetonitrile]",> 1000 nM
3,"Cc1cccc2cccc(N3CCc4c(nc(OC[C@@H]5CCCN5C)nc4N4CCN(C(=O)C5=CC(=O)CC5)[C@@H](CC#N)C4)C3)c12 [Example 497, 2-((S)-4-(7-(8-methylnaphthalen-1-yl)-2-(((S)-1-methylpyrrolidin-2-yl)methoxy)-5,6,7,8-tetrahydropyrido[3,4-d]pyrimidin-4-yl)-1-(3-oxocyclopent-1-ene-1-carbonyl)piperazin-2-yl)acetonitrile]",0.1 to 1000 nM
4,"Cc1cccc2cccc(N3CCc4c(nc(OC[C@@H]5CCCN5C)nc4N4CCN(C(=O)/C=C/C(=O)N(C)C)[C@@H](CC#N)C4)C3)c12 [Example 499, (E)-4-((S)-2-(cyanomethyl)-4-(7-(8-methylnaphthalen-1-yl)-2-(((S)-1-methylpyrrolidin-2-yl)methoxy)-5,6,7,8-tetrahydropyrido[3,4-d]pyrimidin-4-yl)piperazin-1-yl)-N,N-dimethyl-4-oxobut-2-enamide]",0.1 to 1000 nM
5,"Cc1cccc2cccc(N3CCc4c(nc(OC[C@@H]5CCCN5C)nc4N4CCN(C(=O)/C=C/C(N)=O)[C@@H](CC#N)C4)C3)c12 [Example 500, (E)-4-((S)-2-(cyanomethyl)-4-(7-(8-methylnaphthalen-1-yl)-2-(((S)-1-methylpyrrolidin-2-yl)methoxy)-5,6,7,8-tetrahydropyrido[3,4-d]pyrimidin-4-yl)piperazin-1-yl)-4-oxobut-2-enamide]",0.1 to 1000 nM
6,"CN(C)C/C=C(/F)C(=O)N1CCN(c2nc(OC[C@@H]3CCCN3C)nc3c2CCN(c2cccc4cccc(Cl)c24)C3)C[C@@H]1CC#N [Example 503, 2-[(2S)-4-[7-(8-chloro-1-naphthyl)-2-[[(2S)-1-methylpyrrolidin-2-yl]methoxy]-6,8-dihydro-5H-pyrido[3,4-d]pyrimidin-4-yl]-1-[(E)-4-(dimethylamino)-2-fluoro-but-2-enoyl]piperazin-2-yl]acetonitrile]",> 1000 nM
7,"Cc1cccc(N2CCc3c(nc(OC[C@@H]4CCCN4C)nc3N3CCN(C(=O)/C=C\Cl)[C@@H](CC#N)C3)C2)c1C [Example 505, 2-((S)-1-((Z)-3-chloroacryloyl)-4-(7-(2,3-dimethylphenyl)-2-(((S)-1-methylpyrrolidin-2-yl)methoxy)-5,6,7,8-tetrahydropyrido[3,4-d]pyrimidin-4-yl)piperazin-2-yl)acetonitrile]",> 1000 nM
8,"Cc1cccc2cccc(N3CCc4c(nc(OC[C@@H]5CCCN5C)nc4N4CCN(C(=O)C#CCO)[C@@H](CC#N)C4)C3)c12 [Example 508, 2-((S)-1-(4-hydroxybut-2-ynoyl)-4-(7-(8-methylnaphthalen-1-yl)-2-(((S)-1-methylpyrrolidin-2-yl)methoxy)-5,6,7,8-tetrahydropyrido[3,4-d]pyrimidin-4-yl)piperazin-2-yl)acetonitrile]",0.1 to 1000 nM
9,"C=C(F)C(=O)N1CCN(c2nc(OC[C@H]3C[C@@H](F)CN3C)nc3c2CCN(c2cccc4cccc(C)c24)C3)C[C@@H]1CC#N [Example 518, 2-[(2S)-4-[2-[[(2R,4R)-4-fluoro-1-methyl-pyrrolidin-2-yl]methoxy]-7-(8-methyl-1-naphthyl)-6,8-dihydro-5H-pyrido[3,4-d]pyrimidin-4-yl]-1-(2-fluoroprop-2-enoyl)piperazin-2-yl]acetonitrile]",0.1 to 1000 nM
